What was measured:
[1] = system: TNF; assay: PBMC assay: TNF cytokine level after LPS stimulation; assay type: cell-based; settings: PBMC; human PBMCs, 30 min compound, 100 ng/ml LPS for 6 hrs, MSD
Procedure: (§1) Peripheral venous blood was collected from healthy individuals and human peripheral blood mononuclear cells (PBMCs) were isolated from blood by Ficoll-Histopaque (Sigma-Aldrich, A0561) density gradient centrifugation. After isolation, PBMCs were stored in liquid nitrogen for later use. Upon thawing, PBMC cell viability was determined in growth medium (RPMI media supplemented with 10% fetal bovine serum, 1% Pen-Strep and 1% L-glutamine). Compounds were spotted in a 1:3 serial dilution in DMSO and diluted to the final concentration in 30 μl medium in 96 well plates (Falcon, 353072). PBMCs were added at a density of 7.5×10^4 cells per well and incubated for 30 min in a 5% CO2 incubator at 37° C. LPS stimulation was performed by addition of 100 ng/ml LPS (final concentration, Invivogen, tlrl-smlps) for 6 hrs followed by collection of cellular supernatant and the analysis of IL-1β (μM) and TNF cytokines levels (μM) via MSD technology according to manufacturers' guidelines (MSD, K151A0H).
(§2) IC50 and AC50 values (for […]) and EC50 and AC50 values (TNF) were obtained on compounds of the invention/examples, and the AC50 values are depicted in the following table: […]

[2] = system: IL-1β; assay: PBMC assay: IL-1β release after LPS stimulation; assay type: cell-based; settings: PBMC; human PBMCs, 30 min compound, 100 ng/ml LPS for 6 hrs, MSD; read-out: IL1β AC50
Procedure: The activity of a compound according to the present invention can be assessed by in vitro methods.
as §1, §2

## Cc1ccn2nc(NC(=O)Cn3nc(C(C)C)c(OCC(C)C)cc3=O)cc2n1 [Compound 120]
[1]
  AC50: > 20 µM
[2]
  AC50: 2.66 µM

## CC(C)c1nn(CC(=O)Nc2ccc3nncn3c2)c(=O)cc1OCC1(F)CC1 [Compound 64]
[1]
  AC50: > 20 µM
[2]
  AC50: 0.2 µM

## CC(C)COc1cc(=O)n(CC(=O)Nc2nc3cc(Br)ccc3n2C)nc1C(C)C [Compound 151]
[1]
  AC50: > 20 µM
[2]
  AC50: > 20 µM

## COc1cc(=O)n(CC(=O)Nc2ccc3nncn3c2)nc1C(C)C [Compound 162]
[1]
  AC50: > 20 µM
[2]
  AC50: > 20 µM

## CC(C)c1nn(CC(=O)Nc2ccc3nncn3c2)c(=O)cc1OCC1CC(F)(F)C1 [Compound 19F]
[1]
  AC50: > 10 µM
[2]
  AC50: 5.33 µM

## CCCOc1c(C(C)C)nn(CC(=O)Nc2ccc3nncn3c2)c(=O)c1Cl [Compound 84]
[1]
  AC50: 19.4 µM
[2]
  AC50: 0.63 µM

## Cc1ccc2c(c1)nc(NC(=O)Cn1nc(C(C)C)c(OCC(C)C)cc1=O)n2C [Compound 133]
[1]
  AC50: > 10 µM
[2]
  AC50: > 10 µM

## COc1c(C(C)C)nn(CC(=O)Nc2ccc3nncn3c2)c(=O)c1C1CC1 [Compound 28E]
[1]
  AC50: > 10 µM
[2]
  AC50: > 15 µM

## CC(C)c1nn(CC(=O)Nc2ccc3nncn3c2)c(=O)cc1OCC(C)(F)F [Compound 8F]
[1]
  AC50: > 10 µM
[2]
  AC50: 0.19 µM

## CC(C)COc1cc(=O)n(CC(=O)Nc2nc3ccccc3o2)nc1C(C)C [Compound 128]
[1]
  AC50: > 20 µM
[2]
  AC50: 4.28 µM

## Cc1c(OCC(C)C)c(C(C)C)nn(CC(=O)Nc2ccncc2)c1=O [Compound 73]
[1]
  AC50: > 20 µM
[2]
  AC50: 0.33 µM

## CC(C)COc1c(C(C)C)nn(CC(=O)Nc2ccc3nncn3c2)c(=O)c1F [Compound 61]
[1]
  AC50: > 20 µM
[2]
  AC50: 0.16 µM

## COCC12CC(NC(=O)Cn3nc(C(C)C)c(OCC(C)C)cc3=O)(C1)C2 [Compound 111]
[1]
  AC50: > 20 µM
[2]
  AC50: 1.47 µM

## CC(C)c1nn(CC(=O)Nc2ccc3nncn3c2)c(=O)c(Cl)c1OCC1CC1 [Compound 74]
[1]
  AC50: > 20 µM
[2]
  AC50: 0.36 µM

## CC(C)COc1cc(=O)n(CC(=O)Nc2nc3cc(F)ccc3n2C)nc1C(C)C [Compound 149]
[1]
  AC50: > 20 µM
[2]
  AC50: > 20 µM

## CC(C)c1nn(CC(=O)Nc2ccc3nncn3n2)c(=O)cc1OCC1(F)CC1 [Compound 57]
[1]
  AC50: > 20 µM
[2]
  AC50: 0.14 µM

## CC(Oc1cc(=O)n(CC(=O)Nc2ccc3nncn3c2)nc1C(C)C)C(=O)N(C)C (stereo not shown) [Compound 4F]
[1]
  AC50: > 10 µM
[2]
  AC50: > 15 µM

## COc1c(C(C)C)nn(CC(=O)Nc2ccc3nncn3c2)c(=O)c1Br [Compound 29E]
[1]
  AC50: > 10 µM
[2]
  AC50: > 15 µM

## O=C(Cn1nc(C2CC2)c(OC2CCOCC2)cc1=O)Nc1ccc2nncn2c1 [Compound 30G]
[1]
  AC50: > 10 µM
[2]
  AC50: 14.6 µM

## CC(C)c1nn(CC(=O)Nc2ccc3nncn3c2)c(=O)cc1OC1CNC1 [Compound 161]
[1]
  AC50: > 20 µM
[2]
  AC50: > 20 µM

## CC(C)COc1cc(=O)n(CC(=O)NC23CCC(N)(CC2)CC3)nc1C(C)C [Compound 99]
[1]
  AC50: > 20 µM
[2]
  AC50: 0.97 µM

## CC(C)COc1cc(=O)n(CC(=O)NC23CC(C#N)(C2)C3)nc1C(C)C [Compound 66]
[1]
  AC50: > 20 µM
[2]
  AC50: 0.22 µM

## CC(C)COc1cc(=O)n(CC(=O)Nc2ccc3nncn3n2)nc1OCC(C)C [Compound 108]
[1]
  AC50: > 20 µM
[2]
  AC50: 1.33 µM

## CC(C)COc1cc(=O)n(CC(=O)NC23CC(N4CCCCC4)(C2)C3)nc1C(C)C [Compound 121]
[1]
  AC50: > 20 µM
[2]
  AC50: 2.71 µM

## CC(C)c1nn(CC(=O)Nc2ccc3nncn3c2)c(=O)cc1OC1CCOCC1 [Compound 26F]
[1]
  AC50: > 10 µM
[2]
  AC50: 13.6 µM

## COc1nn(CC(=O)Nc2ccc3nncn3n2)c(=O)cc1OCC(F)(F)F [Compound 154]
[1]
  AC50: > 20 µM
[2]
  AC50: > 20 µM

## CCC(C)Oc1cc(=O)n(CC(=O)Nc2ccc3nncn3c2)nc1C(C)C (stereo not shown) [Compound 9F]
[1]
  AC50: > 10 µM
[2]
  AC50: 0.56 µM

## CC(C)COc1cc(=O)n(CC(=O)NC23CC(C(F)F)(C2)C3)nc1C(C)C [Compound 83]
[1]
  AC50: > 20 µM
[2]
  AC50: 0.51 µM

## CCCOc1cc(=O)n(CC(=O)Nc2ccc3nncn3c2)nc1C(C)C [Compound 24F]
[1]
  AC50: > 10 µM
[2]
  AC50: 0.19 µM

## CC(C)c1nn(CC(=O)Nc2ccc3nncn3c2)c(=O)cc1Oc1ccccc1 [Compound 25F]
[1]
  AC50: > 10 µM
[2]
  AC50: > 15 µM

## CC(C)COc1cc(=O)n(CC(=O)Nc2nc3ccc(Cl)cc3n2C)nc1C(C)C [Compound 134]
[1]
  AC50: > 10 µM
[2]
  AC50: > 10 µM

## COC(=O)C12CCC(NC(=O)Cn3nc(C(C)C)c(OCC(C)C)cc3=O)(CC1)C2 [Compound 38]
[1]
  AC50: 12.2 µM
[2]
  AC50: 0.02 µM

## Cc1ccc2nc(NC(=O)Cn3nc(C(C)C)c(OCC(C)C)cc3=O)n(C)c2c1 [Compound 145]
[1]
  AC50: > 20 µM
[2]
  AC50: > 20 µM

## CC(C)COc1cc(=O)n(CC(=O)Nc2ccc3nncn3c2)nc1C(C)C [Compound 10F]
[1]
  AC50: > 10 µM
[2]
  AC50: 0.06 µM

## CC(C)COc1cc(=O)n(CC(=O)Nc2nc3ccc(Br)cc3n2C)nc1C(C)C [Compound 135]
[1]
  AC50: > 10 µM
[2]
  AC50: > 10 µM

## O=C(Cn1nc(OCC(F)(F)F)c(OCC(F)(F)F)cc1=O)Nc1ccc2nncn2c1 [Compound 156]
[1]
  AC50: > 20 µM
[2]
  AC50: > 20 µM

## CC(C)COc1cc(=O)n(CC(=O)NC23CC(C(=O)O)(C2)C3)nc1C(C)C [Compound 131, 3-(2-(4-isobutoxy-3-isopropyl-6-oxopyridazin-1(6H)-yl)acetamido)bicyclo[1.1.1]pentane-1-carboxylic acid]
[1]
  AC50: > 20 µM
[2]
  AC50: 9.63 µM

## CC(C)COc1cc(=O)n(CC(=O)Nc2nc3cc(Cl)ccc3n2C)nc1C(C)C [Compound 150]
[1]
  AC50: > 20 µM
[2]
  AC50: > 20 µM

## Cc1cc(C(F)(F)F)n2nc(NC(=O)Cn3nc(C(C)C)c(OCC(C)C)cc3=O)nc2n1 [Compound 130, 2-(4-isobutoxy-3-isopropyl-6-oxopyridazin-1(6H)-yl)-N-(5-methyl-7-(trifluoromethyl)-[1,2,4]triazolo[1,5-a]pyrimidin-2-yl)acetamide]
[1]
  AC50: > 20 µM
[2]
  AC50: 8.73 µM

## CC(C)c1nn(CC(=O)Nc2ccc3nncn3n2)c(=O)c(Cl)c1OCCC(F)(F)F [Compound 50]
[1]
  AC50: 1.62 µM
[2]
  AC50: 0.09 µM

## CC(C)c1nn(CC(=O)Nc2ccc3nncn3c2)c(=O)cc1OCC1CNC1 [Compound 160]
[1]
  AC50: > 20 µM
[2]
  AC50: > 20 µM

## CC(C)COc1cc(=O)n(CC(=O)Nc2nc3cc(C#N)ccc3n2C)nc1C(C)C [Compound 148]
[1]
  AC50: > 20 µM
[2]
  AC50: > 20 µM

## Cc1noc(C23CC(NC(=O)Cn4nc(C(C)C)c(OCC(C)C)cc4=O)(C2)C3)n1 [Compound 90, 2-(4-isobutoxy-3-isopropyl-6-oxopyridazin-1(6H)-yl)-N-(3-(3-methyl-1,2,4-oxadiazol-5-yl)bicyclo[1.1.1]pentan-1-yl)acetamide]
[1]
  AC50: > 20 µM
[2]
  AC50: 0.68 µM

## Cc1nccc(NC(=O)Cn2nc(C(C)C)c(OCC(C)C)cc2=O)c1F [Compound 63]
[1]
  AC50: > 20 µM
[2]
  AC50: 0.19 µM

## CC(C)COc1cc(=O)n(CC(=O)Nc2nc3cnccn3n2)nc1C(C)C [Compound 43]
[1]
  AC50: > 20 µM
[2]
  AC50: 0.07 µM

## CC(C)COc1c(C(C)C)nn(CC(=O)Nc2ccc3nncn3c2)c(=O)c1C(F)(F)F [Compound 163]
[1]
  AC50: > 20 µM
[2]
  AC50: > 20 µM

## COC(=O)C12CCC(NC(=O)Cn3nc(C(C)C)c(OCC(C)C)cc3=O)(CC1)CC2 [Compound 45]
[1]
  AC50: > 20 µM
[2]
  AC50: 0.07 µM

## CC(C)COc1cc(=O)n(CC(=O)Nc2ccncc2)nc1C(C)C [Compound 47]
[1]
  AC50: > 20 µM
[2]
  AC50: 0.08 µM

## Cc1nnc(C23CC(NC(=O)Cn4nc(C(C)C)c(OCC(C)C)cc4=O)(C2)C3)o1 [Compound 119, 2-(4-isobutoxy-3-isopropyl-6-oxopyridazin-1(6H)-yl)-N-(3-(5-methyl-1,3,4-oxadiazol-2-yl)bicyclo[1.1.1]pentan-1-yl)acetamide]
[1]
  AC50: > 20 µM
[2]
  AC50: 2.52 µM

## CC(C)COc1cc(=O)n(CC(=O)NC23CC(C2)C3)nc1C(C)C [Compound 110]
[1]
  AC50: > 20 µM
[2]
  AC50: 1.44 µM

## CC(C)COc1cc(=O)n(CC(=O)Nc2cn3cc(Br)ncc3n2)nc1C(C)C [Compound 126]
[1]
  AC50: > 20 µM
[2]
  AC50: 3.56 µM

## Cc1ccn2nc(NC(=O)Cn3nc(C(C)C)c(OCC(C)C)cc3=O)nc2c1 [Compound 91]
[1]
  AC50: > 20 µM
[2]
  AC50: 0.69 µM

## CC(C)COc1cc(=O)n(CC(=O)NC23CC(C4=NN(C)C(=O)C4)(C2)C3)nc1C(C)C [Compound 98, 2-(4-isobutoxy-3-isopropyl-6-oxopyridazin-1(6H)-yl)-N-(3-(1-methyl-5-oxo-4,5-dihydro-1H-pyrazol-3-yl)bicyclo[1.1.1]pentan-1-yl)acetamide]
[1]
  AC50: > 20 µM
[2]
  AC50: 0.96 µM

## CC(C)c1nn(CC(=O)Nc2ccc3nncn3n2)c(=O)c(Cl)c1OCC(C)(F)F [Compound 46]
[1]
  AC50: 8.17 µM
[2]
  AC50: 0.08 µM

## CN(C)c1nn(CCO)c(=O)cc1OCC1CC1 [Compound 157, 5-(cyclopropylmethoxy)-6-(dimethylamino)-2-(2-hydroxyethyl)pyridazin-3(2H)-one]
[1]
  AC50: > 20 µM
[2]
  AC50: > 20 µM

## CC(C)c1nn(CC(=O)Nc2ccc3nncn3n2)c(=O)cc1OCC1CC1 [Compound 51]
[1]
  AC50: > 20 µM
[2]
  AC50: 0.09 µM
